# In the supplement of paper PMC10307832:
# Experiments:
# Assay in all cases: relative viability (nuclei count vs DMSO), 5 days (fraction); higher = more cells survive
# HCC-78 = tested on: HCC-78
# How it was run: (§1)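 A single step with final 0.05% Triton X-100, 1% formaldehyde and 1 ug/ml Hoechst fixed the cells and stained nuclei 5 days after treatment. Lung cancer cell lines in 1536-well plates had been treated by pin tool the day after seeding with one drug alone or a fixed anchor-drug dose plus five library-drug doses (not always all listed) in √10 steps, and nuclei were counted on 4× images. Relative viability is the ratio of nuclei in treated wells to nuclei in vehicle wells, taken as the median of duplicate plates.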
# NCI-H1650 = tested on: NCI-H1650
# How it was run: as §1
# NCI-H3122 = tested on: NCI-H3122
# How it was run: as §1
# RERF-LC-KJ = tested on: RERF-LC-KJ
# How it was run: as §1
# EKVX = tested on: EKVX
# How it was run: as §1
# NCI-H1734 = tested on: NCI-H1734
# How it was run: as §1
# HCC-15 = tested on: HCC-15
# How it was run: as §1
# HARA = tested on: HARA
# How it was run: as §1
# SK-LU-1 = tested on: SK-LU-1
# How it was run: as §1
# 201T = tested on: 201T
# How it was run: as §1
# NCI-H1944 = tested on: NCI-H1944
# How it was run: as §1
# BEN = tested on: BEN
# How it was run: as §1
smiles,measurement,setting,value
O=c1[nH]c2ccccc2n1C1CCN(CCCC(c2ccc(F)cc2)c2ccc(F)cc2)CC1 [Pimozide] + Cc1nc(Nc2ncc(C(=O)Nc3c(C)cccc3Cl)s2)cc(N2CCN(CCO)CC2)n1 [Dasatinib] (partner 0.075 µM),relative viability,HCC-78; first compound 0.08 µM,0.387
same,relative viability,HCC-78; first compound 0.8 µM,0.327
same,relative viability,HCC-78; first compound 2.53 µM,0.345
same,relative viability,HCC-78; first compound 8 µM,0.373
same,relative viability,NCI-H1650; first compound 0.08 µM,0.274
same,relative viability,NCI-H1650; first compound 0.253 µM,0.282
same,relative viability,NCI-H1650; first compound 0.8 µM,0.337
same,relative viability,NCI-H1650; first compound 2.53 µM,0.298
same,relative viability,NCI-H1650; first compound 8 µM,0.239
same,relative viability,NCI-H3122; first compound 0.08 µM,0.885
same,relative viability,NCI-H3122; first compound 0.253 µM,0.861
same,relative viability,NCI-H3122; first compound 0.8 µM,0.385
same,relative viability,NCI-H3122; first compound 2.53 µM,0.851
same,relative viability,NCI-H3122; first compound 8 µM,0.688
same,relative viability,RERF-LC-KJ; first compound 0.08 µM,0.775
same,relative viability,RERF-LC-KJ; first compound 0.253 µM,0.611
same,relative viability,RERF-LC-KJ; first compound 0.8 µM,0.696
same,relative viability,RERF-LC-KJ; first compound 2.53 µM,0.66
same,relative viability,RERF-LC-KJ; first compound 8 µM,0.501
same,relative viability,EKVX; first compound 0.253 µM,0.489
same,relative viability,EKVX; first compound 0.8 µM,0.544
same,relative viability,EKVX; first compound 2.53 µM,0.536
same,relative viability,EKVX; first compound 8 µM,0.688
same,relative viability,NCI-H1734; first compound 0.08 µM,0.495
same,relative viability,NCI-H1734; first compound 0.253 µM,0.454
same,relative viability,NCI-H1734; first compound 2.53 µM,0.529
same,relative viability,NCI-H1734; first compound 8 µM,0.493
same,relative viability,HCC-15; first compound 0.08 µM,0.651
same,relative viability,HCC-15; first compound 0.253 µM,0.577
same,relative viability,HCC-15; first compound 0.8 µM,0.551
same,relative viability,HCC-15; first compound 2.53 µM,0.565
same,relative viability,HCC-15; first compound 8 µM,0.495
same,relative viability,HARA; first compound 0.253 µM,0.262
same,relative viability,HARA; first compound 0.8 µM,0.275
same,relative viability,HARA; first compound 2.53 µM,0.247
same,relative viability,HARA; first compound 8 µM,0.304
same,relative viability,SK-LU-1; first compound 0.08 µM,0.2
same,relative viability,SK-LU-1; first compound 0.253 µM,0.21
same,relative viability,SK-LU-1; first compound 0.8 µM,0.184
same,relative viability,SK-LU-1; first compound 2.53 µM,0.186
same,relative viability,SK-LU-1; first compound 8 µM,0.168
same,relative viability,201T; first compound 0.08 µM,0.573
same,relative viability,201T; first compound 0.253 µM,0.527
same,relative viability,201T; first compound 0.8 µM,0.564
same,relative viability,201T; first compound 2.53 µM,0.516
same,relative viability,201T; first compound 8 µM,0.52
same,relative viability,NCI-H1944; first compound 0.08 µM,0.212
same,relative viability,NCI-H1944; first compound 0.253 µM,0.203
same,relative viability,NCI-H1944; first compound 0.8 µM,0.183
same,relative viability,NCI-H1944; first compound 2.53 µM,0.225
same,relative viability,NCI-H1944; first compound 8 µM,0.197
same,relative viability,BEN; first compound 0.08 µM,0.279
same,relative viability,BEN; first compound 0.253 µM,0.364
same,relative viability,BEN; first compound 0.8 µM,0.26
